Laboratory results taken from publication PMC3758898 (Bioorganic & medicinal chemistry, 2013).

How the values were obtained:
[1] = molecular target: T1, UPPS (Undecaprenyl Pyrophosphate Synthase) (Bacteroides fragilis, UniProt Q5LI17); experiment: RP-HPLC with fluorescence detection; type: biochemical; conditions: IPP 0.2 mM, MgCl2 0.5 mM, KCl 5 mM, 0.1% DDM, HEPES pH 7.4, 37 °C, 1 h
T1 sequence (Q5LI17 1-244): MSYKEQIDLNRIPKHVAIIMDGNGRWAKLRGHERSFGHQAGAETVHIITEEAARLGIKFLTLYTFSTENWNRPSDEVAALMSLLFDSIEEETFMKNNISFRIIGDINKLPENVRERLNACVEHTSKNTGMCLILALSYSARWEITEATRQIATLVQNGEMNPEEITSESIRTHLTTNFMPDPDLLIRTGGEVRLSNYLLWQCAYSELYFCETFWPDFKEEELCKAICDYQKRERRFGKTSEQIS

[2] = molecular target: T1, UPPS (Undecaprenyl Pyrophosphate Synthase); experiment: RP-HPLC with fluorescence detection, TLC, ESI-MS, 1H-NMR of product; type: biochemical; conditions: IPP 0.2 mM, MgCl2 0.5 mM, KCl 5 mM, 0.1% DDM, HEPES pH 7.4, 37 °C

Row | SMILES | RP-HPLC with fluorescence detection [1] | RP-HPLC with fluorescence detection, TLC, ESI-MS, 1H-NMR of product [2]
1 | C/C(=C/COP(=O)(O)OP(=O)(O)O)CC/C=C(\C)CNc1ccccc1C(N)=O [6a, (6Z)-8-(2-amideaniline)-3,7-dimethyl-2,6-octadiene diphosphate] | we observed identical activity with 2AB-N-PP | 
2 | C/C(=C\COP(=O)(O)OP(=O)(O)O)CC/C=C(\C)CNc1ccccc1C(N)=O [6b, (6E)-8-(2-amideaniline)-3,7-dimethyl-2,6-octadiene diphosphate] |  | these results confirmed the formation of the long chain isoprenoid with 2AB-G-PP as the UPPS substrate
